Laboratory results: patent publication US9402821B2, “Methods and pharmaceutical compositions for treatment of cystic fibrosis” (INSERM (Institut National de la sante et de la Recherche …, priority 2012, dated 2016)

Molecular target: CFTR (Homo sapiens, UniProt P13569)
Assay: Short circuit current, cAMP-dependent Cl secretion (forskolin + IBMX) in HNEC
Assay type: cell-based
Set-up: Nasal polyps were obtained from non-CF requiring surgery for their nasal polyposis; endogenous in cells; host or cells: primary human nasal epithelial cells (HNEC) from nasal polyps of non-CF patients
Settings: primary HNEC, air-liquid interface, 500 μM basolateral, 2 h, mean SEM of five filters
Protocol: B. Chloride activity in HeLa Wt cells was measured by MQAE assay, after 3 h of treatment by NSAID (500 μM) or diluent. CFTR activity was expressed in rate of UFA/sec, calculated by difference between ((Ft−F0)/t) with CFTR induction and ((Ft−F0)/t) without CFTR induction. […] C. Primary culture of human nasal epithelial cell (HNEC) grown on Snapwell filters (air-liquid interface) were exposed basolaterally to sulindac (500 μM) or vehicle for 2 h and immediately mounted into a voltage-clamp system to bioelectric measurements. Short circuit current was measured with addition of amiloride to evaluated amiloride sensitive transport or with forskolin and IBMX for induced cAMP-dependent Cl secretion.
Two cell models were used to the interface air-liquid model for ionic efflux assays by short circuit current and to dose the basolateral IL-8 secretion. Calu-3 are derived from lung adenocarcinoma and are able to polarized and express a high rate of endogenous CFTR. […] Transepithelial resistance and transepithelial potential difference were measured every 3 days using a microvoltmeter (World Precision Instruments, Astonbury, UK).
Cells were grown at 37° C. in a 5% CO2 incubator in DMEM with Glutamax (Invitrogen) and 10% fetal bovine serum (SVF). […] The effects of treatment in HNEC cultures on snapwell inserts were evaluated between days 10 and 16. […]

Chain of CFTR (P13569 whole entry): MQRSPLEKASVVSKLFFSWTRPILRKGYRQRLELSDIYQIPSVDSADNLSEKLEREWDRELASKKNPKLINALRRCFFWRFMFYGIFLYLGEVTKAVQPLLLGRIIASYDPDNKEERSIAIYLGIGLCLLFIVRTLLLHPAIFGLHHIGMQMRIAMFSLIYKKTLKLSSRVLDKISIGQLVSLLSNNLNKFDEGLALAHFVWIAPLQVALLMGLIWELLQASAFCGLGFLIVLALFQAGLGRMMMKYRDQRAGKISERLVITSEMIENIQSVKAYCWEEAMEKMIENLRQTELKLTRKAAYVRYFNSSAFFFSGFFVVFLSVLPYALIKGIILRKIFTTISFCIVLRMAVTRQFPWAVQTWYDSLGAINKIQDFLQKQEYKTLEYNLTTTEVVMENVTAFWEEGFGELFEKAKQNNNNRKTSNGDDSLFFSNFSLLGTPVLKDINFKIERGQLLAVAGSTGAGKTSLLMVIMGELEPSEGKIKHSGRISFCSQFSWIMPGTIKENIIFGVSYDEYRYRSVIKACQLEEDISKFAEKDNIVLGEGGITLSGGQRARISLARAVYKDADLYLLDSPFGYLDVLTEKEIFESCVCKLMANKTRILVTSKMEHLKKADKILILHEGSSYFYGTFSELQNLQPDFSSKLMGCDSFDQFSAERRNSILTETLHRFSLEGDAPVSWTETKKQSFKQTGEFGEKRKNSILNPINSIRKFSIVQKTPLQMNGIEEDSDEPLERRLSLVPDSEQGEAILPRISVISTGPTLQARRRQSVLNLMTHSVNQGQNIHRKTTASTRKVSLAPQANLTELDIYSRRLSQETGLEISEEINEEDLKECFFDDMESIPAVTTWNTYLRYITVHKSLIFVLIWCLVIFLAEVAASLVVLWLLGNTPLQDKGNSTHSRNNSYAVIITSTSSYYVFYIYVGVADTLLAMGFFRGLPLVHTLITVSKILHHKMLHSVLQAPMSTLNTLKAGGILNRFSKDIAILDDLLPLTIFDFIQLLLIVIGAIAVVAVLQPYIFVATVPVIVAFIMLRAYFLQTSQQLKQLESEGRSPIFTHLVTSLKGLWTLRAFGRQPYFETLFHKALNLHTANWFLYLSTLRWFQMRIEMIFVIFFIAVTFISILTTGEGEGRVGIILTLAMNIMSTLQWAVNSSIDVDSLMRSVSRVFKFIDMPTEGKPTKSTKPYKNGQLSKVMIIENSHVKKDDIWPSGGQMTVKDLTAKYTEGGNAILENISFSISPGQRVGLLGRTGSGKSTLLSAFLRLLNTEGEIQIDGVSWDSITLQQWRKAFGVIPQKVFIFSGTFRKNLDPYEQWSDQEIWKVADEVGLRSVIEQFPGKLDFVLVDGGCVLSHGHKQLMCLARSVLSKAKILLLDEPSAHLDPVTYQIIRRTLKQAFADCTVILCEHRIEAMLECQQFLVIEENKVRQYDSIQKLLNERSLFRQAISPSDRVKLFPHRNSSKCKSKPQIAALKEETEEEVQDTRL

For `CC1=C(CC(=O)O)c2cc(F)ccc2/C1=C\c1ccc([S+](C)[O-])cc1` (centres unmarked) [sulindac, (Z)-5-fluoro-2-methyl-1-[p-(methylsulfinyl)benzylidene]-indene-3-acetic acid], the “increase of CFTR activity (short circuit current, forskolin + IBMX)” value was “increase of CFTR activity” and the “increase of CFTR activity (short circuit current, forskolin + IBMX)” value (listed as Sulindac) was 46.35%.
